Legend:
[1] = system: T1, α-subunit containing GABAA receptor (GABAAR) from human amygdala; format: cell-based; settings: antagonist against 50 μmol/L GABA; pH 7.4, room temperature
T1 construct: gene GABRA1

[2] = system: T1, α-subunit containing GABAA receptor (GABAAR) from human amygdala; settings: agonist; -70 mV, pH 7.4, room temperature

Row | SMILES | IC50 [1] | EC50 [2]
1 | CN1CCc2cc3c(cc2[C@H]1[C@@H]1OC(=O)c2c1ccc1c2OCO1)OCO3 [bicuculline] | 8 µM | –
2 | NCc1cc(O)no1 [muscimol] | – | 45 µM

— paper PMC5371550, “GABAB receptor attenuation of GABAA currents in neurons of the mammalian central nervous system” (Physiological Reports, 2017)
